Holding throughout (test): Kinase profiling
Format in all cases: biochemical

Test [1] addresses T1, EIF2AK2 (Homo sapiens, UniProt P19525).
T1 construct: purchased ProQinase (Freiburg, Germany)
The protocol:
(§1) The analysis was performed by ProQinase (Freiburg, Germany).

The target of test [2] is T2, SLK (Homo sapiens, UniProt Q9H2G2).
T2 construct: purchased ProQinase (Freiburg, Germany)
As for the experimental part: as §1

Test [3] deals with T3, GRK7 (Homo sapiens, UniProt Q8WTQ7).
T3 construct: purchased ProQinase (Freiburg, Germany)
T3 sequence (Q8WTQ7 1-553): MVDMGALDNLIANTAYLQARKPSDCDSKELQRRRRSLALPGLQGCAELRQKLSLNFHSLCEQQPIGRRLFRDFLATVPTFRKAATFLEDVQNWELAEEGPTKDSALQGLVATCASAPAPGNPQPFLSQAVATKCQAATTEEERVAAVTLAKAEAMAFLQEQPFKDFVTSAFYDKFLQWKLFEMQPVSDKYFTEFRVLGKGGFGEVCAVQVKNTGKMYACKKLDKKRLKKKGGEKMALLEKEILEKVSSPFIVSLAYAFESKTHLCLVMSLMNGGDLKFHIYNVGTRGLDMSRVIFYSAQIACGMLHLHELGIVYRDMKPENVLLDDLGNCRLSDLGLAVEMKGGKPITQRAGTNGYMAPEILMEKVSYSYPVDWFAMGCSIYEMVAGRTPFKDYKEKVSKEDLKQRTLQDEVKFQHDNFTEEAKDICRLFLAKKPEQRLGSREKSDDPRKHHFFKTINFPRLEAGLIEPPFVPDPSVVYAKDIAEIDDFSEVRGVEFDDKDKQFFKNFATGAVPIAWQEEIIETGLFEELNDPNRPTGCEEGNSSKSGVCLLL
The protocol: as §1

Test [4] addresses T4, LRRK2 (Homo sapiens, UniProt Q5S007).
T4 construct: purchased ProQinase (Freiburg, Germany)
The protocol: as §1

Test [5] deals with T5, PKA (Homo sapiens, UniProt P17612).
T5 construct: purchased ProQinase (Freiburg, Germany)
As for the experimental part: as §1

Test [6] deals with T6, SGK1 (Homo sapiens, UniProt O00141).
T6 construct: purchased ProQinase (Freiburg, Germany)
T6 sequence (O00141 1-431): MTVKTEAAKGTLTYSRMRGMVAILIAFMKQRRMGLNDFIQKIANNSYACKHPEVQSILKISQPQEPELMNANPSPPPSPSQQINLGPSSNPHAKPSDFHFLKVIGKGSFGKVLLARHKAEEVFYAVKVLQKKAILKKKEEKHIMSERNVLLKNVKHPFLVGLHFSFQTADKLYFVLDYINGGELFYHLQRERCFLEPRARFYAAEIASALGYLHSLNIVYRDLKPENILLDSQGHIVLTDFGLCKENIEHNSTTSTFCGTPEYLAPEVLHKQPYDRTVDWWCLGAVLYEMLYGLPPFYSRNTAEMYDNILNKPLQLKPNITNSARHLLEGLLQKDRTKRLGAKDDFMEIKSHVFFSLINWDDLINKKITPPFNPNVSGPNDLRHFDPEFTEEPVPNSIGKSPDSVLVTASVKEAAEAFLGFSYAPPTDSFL
The protocol:
as §1

In test [7] the target is T7, PYK2 (Homo sapiens, UniProt Q14289).
T7 construct: purchased ProQinase (Freiburg, Germany)
As for the experimental part:
as §1

The target of test [8] is T8, JNK1 (Homo sapiens, UniProt P45983).
T8 construct: purchased ProQinase (Freiburg, Germany)
T8 sequence (P45983 whole entry): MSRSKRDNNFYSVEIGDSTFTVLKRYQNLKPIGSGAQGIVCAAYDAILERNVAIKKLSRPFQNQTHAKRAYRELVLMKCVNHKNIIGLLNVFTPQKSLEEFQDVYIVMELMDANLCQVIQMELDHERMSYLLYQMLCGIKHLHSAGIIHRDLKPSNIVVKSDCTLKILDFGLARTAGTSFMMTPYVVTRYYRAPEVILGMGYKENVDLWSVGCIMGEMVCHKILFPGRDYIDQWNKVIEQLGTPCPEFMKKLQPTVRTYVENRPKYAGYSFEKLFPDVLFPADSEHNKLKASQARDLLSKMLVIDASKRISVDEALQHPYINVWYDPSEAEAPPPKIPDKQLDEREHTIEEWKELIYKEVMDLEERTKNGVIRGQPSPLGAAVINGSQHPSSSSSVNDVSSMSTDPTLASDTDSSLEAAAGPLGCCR
The protocol: as §1

In test [9] the target is T9, FES (Homo sapiens, UniProt P07332).
T9 construct: purchased ProQinase (Freiburg, Germany)
As for the experimental part: as §1

The target in test [10] is T10, MAPKAPK3 (Homo sapiens, UniProt Q16644).
T10 construct: purchased ProQinase (Freiburg, Germany)
T10 sequence (Q16644 whole entry): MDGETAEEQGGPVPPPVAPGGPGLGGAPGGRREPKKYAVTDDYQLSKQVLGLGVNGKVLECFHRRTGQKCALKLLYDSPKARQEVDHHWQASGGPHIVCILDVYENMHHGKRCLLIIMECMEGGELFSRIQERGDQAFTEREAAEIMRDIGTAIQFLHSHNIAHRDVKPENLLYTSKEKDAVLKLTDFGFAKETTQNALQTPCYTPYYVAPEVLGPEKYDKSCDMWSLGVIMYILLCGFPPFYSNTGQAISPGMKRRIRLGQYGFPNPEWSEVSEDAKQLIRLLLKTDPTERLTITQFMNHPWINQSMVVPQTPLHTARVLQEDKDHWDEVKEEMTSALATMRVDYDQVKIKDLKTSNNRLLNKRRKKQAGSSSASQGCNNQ
The protocol:
as §1

Test [11] has as its target T11, TGFBR1 (Homo sapiens, UniProt P36897).
T11 construct: purchased ProQinase (Freiburg, Germany)
T11 sequence (P36897 34-503): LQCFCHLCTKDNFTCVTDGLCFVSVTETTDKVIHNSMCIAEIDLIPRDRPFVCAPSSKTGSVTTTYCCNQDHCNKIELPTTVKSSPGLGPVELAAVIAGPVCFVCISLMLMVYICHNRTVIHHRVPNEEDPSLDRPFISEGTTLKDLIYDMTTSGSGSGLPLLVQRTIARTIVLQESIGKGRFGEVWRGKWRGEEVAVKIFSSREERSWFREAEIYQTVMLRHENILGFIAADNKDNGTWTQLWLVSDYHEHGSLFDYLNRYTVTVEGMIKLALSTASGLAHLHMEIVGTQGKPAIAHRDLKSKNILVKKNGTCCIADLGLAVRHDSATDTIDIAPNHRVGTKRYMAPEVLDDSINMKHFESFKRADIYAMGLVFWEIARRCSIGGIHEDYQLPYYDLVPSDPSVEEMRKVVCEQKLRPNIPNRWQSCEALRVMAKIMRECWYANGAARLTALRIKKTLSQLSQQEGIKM
The protocol: as §1

T4 sequence (Q5S007 whole entry): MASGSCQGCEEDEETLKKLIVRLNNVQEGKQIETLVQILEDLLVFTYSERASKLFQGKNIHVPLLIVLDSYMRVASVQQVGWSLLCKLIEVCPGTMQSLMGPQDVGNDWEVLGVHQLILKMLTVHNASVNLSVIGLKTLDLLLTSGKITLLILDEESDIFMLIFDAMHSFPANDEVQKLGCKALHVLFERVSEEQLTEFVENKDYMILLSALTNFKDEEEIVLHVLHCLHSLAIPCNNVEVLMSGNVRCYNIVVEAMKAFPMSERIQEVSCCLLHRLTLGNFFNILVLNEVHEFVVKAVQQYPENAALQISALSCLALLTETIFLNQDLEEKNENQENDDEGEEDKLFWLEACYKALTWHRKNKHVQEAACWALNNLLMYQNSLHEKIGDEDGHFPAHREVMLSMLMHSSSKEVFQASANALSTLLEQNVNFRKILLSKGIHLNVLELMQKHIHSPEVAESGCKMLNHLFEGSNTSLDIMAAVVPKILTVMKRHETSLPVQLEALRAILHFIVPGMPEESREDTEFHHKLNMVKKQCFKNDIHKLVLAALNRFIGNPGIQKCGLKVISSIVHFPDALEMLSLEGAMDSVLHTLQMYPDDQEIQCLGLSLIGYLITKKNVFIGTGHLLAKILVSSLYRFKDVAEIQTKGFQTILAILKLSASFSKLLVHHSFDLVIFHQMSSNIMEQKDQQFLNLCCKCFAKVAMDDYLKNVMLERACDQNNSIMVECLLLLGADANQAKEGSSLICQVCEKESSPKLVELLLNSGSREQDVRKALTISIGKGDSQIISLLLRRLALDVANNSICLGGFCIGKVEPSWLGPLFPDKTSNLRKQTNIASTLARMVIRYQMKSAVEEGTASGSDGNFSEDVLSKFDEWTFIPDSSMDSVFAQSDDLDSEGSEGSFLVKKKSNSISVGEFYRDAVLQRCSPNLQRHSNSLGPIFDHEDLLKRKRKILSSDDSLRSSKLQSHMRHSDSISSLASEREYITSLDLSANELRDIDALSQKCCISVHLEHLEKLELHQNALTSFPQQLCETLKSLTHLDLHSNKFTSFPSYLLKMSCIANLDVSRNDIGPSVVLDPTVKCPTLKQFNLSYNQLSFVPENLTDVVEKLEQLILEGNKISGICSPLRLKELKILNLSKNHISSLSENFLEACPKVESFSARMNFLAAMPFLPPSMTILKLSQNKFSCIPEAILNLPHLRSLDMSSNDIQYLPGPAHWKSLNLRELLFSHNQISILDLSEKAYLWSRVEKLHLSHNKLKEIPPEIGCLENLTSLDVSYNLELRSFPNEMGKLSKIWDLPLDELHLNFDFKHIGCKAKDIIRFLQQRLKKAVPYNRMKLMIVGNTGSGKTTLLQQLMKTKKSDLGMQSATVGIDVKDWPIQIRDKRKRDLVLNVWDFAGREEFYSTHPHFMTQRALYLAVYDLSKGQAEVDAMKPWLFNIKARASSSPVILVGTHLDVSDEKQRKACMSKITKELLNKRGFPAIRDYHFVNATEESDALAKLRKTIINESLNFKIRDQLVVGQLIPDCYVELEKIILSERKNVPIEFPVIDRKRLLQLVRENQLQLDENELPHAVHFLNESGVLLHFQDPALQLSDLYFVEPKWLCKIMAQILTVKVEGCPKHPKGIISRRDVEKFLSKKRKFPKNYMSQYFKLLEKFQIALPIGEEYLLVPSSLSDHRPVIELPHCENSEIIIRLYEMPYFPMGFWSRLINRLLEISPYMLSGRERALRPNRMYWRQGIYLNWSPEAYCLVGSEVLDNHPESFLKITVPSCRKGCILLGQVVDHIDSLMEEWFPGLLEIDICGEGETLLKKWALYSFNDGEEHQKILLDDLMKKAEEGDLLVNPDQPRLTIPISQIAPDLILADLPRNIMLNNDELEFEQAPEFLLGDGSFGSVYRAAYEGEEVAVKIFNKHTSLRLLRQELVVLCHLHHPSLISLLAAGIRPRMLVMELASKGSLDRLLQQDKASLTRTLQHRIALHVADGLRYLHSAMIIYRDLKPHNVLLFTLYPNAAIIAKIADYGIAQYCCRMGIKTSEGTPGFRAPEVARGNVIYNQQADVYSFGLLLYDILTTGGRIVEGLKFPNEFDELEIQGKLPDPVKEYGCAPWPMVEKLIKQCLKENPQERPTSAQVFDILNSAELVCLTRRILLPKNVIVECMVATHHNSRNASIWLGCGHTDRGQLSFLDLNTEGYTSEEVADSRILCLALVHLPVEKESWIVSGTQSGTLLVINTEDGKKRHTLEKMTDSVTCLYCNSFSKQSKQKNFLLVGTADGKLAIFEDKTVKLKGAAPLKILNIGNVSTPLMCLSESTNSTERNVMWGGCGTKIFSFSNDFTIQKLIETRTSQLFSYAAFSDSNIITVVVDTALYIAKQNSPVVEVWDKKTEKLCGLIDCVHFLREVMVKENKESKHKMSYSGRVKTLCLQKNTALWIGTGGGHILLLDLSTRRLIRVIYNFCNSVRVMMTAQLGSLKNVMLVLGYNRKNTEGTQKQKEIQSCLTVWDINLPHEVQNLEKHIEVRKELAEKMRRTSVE
T1 sequence (P19525 whole entry): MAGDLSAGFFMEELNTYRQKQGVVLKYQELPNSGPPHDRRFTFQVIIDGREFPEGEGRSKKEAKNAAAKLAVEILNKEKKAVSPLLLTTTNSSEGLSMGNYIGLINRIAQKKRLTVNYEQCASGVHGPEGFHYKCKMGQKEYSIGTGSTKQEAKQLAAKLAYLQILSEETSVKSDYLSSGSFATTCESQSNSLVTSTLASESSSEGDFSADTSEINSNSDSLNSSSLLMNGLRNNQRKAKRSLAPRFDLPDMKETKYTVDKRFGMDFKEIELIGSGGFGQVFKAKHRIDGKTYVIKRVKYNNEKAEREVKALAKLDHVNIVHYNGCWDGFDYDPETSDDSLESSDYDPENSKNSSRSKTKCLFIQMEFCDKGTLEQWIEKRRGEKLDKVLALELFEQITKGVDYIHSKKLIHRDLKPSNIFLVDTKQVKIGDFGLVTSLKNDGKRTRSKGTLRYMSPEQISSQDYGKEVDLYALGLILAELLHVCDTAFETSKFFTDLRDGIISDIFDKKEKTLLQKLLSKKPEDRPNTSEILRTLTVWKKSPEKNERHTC
T2 sequence (Q9H2G2 whole entry): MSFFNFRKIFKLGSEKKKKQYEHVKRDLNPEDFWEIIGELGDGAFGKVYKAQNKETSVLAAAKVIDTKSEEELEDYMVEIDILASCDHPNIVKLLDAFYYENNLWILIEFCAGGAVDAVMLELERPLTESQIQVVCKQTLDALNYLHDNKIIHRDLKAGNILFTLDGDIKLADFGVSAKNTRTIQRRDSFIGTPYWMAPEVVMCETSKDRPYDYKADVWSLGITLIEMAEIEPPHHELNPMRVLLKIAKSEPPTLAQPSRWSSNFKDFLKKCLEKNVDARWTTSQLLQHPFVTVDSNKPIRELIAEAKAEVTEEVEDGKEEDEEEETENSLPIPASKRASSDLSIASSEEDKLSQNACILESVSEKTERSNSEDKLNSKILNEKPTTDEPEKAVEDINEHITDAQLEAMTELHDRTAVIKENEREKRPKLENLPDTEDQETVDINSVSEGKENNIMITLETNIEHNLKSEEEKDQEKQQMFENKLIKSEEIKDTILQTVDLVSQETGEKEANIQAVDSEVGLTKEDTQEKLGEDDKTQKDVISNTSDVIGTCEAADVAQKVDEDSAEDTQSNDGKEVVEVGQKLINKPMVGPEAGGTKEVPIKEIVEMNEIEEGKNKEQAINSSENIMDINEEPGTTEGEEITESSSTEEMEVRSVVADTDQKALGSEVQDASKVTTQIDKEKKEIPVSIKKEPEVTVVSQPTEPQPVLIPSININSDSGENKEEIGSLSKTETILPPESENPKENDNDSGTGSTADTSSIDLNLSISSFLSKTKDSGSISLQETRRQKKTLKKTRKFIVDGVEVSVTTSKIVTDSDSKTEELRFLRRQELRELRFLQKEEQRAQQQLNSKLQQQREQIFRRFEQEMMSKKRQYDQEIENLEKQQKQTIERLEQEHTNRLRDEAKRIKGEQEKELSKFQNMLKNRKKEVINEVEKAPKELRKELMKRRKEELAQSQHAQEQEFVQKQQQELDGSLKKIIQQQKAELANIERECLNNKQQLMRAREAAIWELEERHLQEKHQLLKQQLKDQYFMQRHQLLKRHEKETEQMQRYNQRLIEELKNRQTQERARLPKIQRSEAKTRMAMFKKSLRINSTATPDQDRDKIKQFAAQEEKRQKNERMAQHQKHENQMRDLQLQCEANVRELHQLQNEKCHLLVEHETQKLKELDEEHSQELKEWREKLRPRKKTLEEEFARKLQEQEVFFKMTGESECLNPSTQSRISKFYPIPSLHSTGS

By inhibition is commonly meant the percentage by which the read-out fell short of the control. Higher therefore signals a strong effect. Consider `O=C(Cc1ccccc1)Nc1ccc(F)c(Nc2ccc3c(c2)CCCCC3=O)c1` [Compound 100], for which the Residual activity in [1] (1.0E-05 M) is 113 % of control; in [1] (1.0E-06 M), 97 % of control; in test [2] (1.0E-05 M), 93 % of control; in [2] (1.0E-06 M) it was 98 % of control; in [3] (1.0E-05 M) it was 123 % of control; in test [3] (1.0E-06 M), 121 % of control. Besides, the Residual activity in test [4] (1.0E-05 M) was 92 % of control; in test [4] (1.0E-06 M), 89 % of control; in test [5] (1.0E-05 M) it was 21 % of control; in test [5] (1.0E-06 M) it was 97 % of control; in test [6] (1.0E-05 M), 85 % of control; in test [6] (1.0E-06 M) it was 108 % of control. Besides, the Residual activity is 79 % of control in test [7] (1.0E-05 M); 108 % of control in test [7] (1.0E-06 M); 76 % of control in test [8] (1.0E-05 M); 100 % of control in test [8] (1.0E-06 M); 67 % of control in test [9] (1.0E-05 M); 81 % of control in test [9] (1.0E-06 M). Further, the Residual activity in test [10] (1.0E-05 M) was 50 % of control; in [10] (1.0E-06 M), 109 % of control; in test [11] (1.0E-05 M), 88 % of control; in test [11] (1.0E-06 M), 95 % of control. Further, the inhibition at 10 µM in test [5] and in test [10] (10 µM) was no less than 50% throughout.

With `O=C(Nc1ccc(F)c(Nc2ccc3c(c2)CCCCC3=O)c1)c1cccc(F)c1` [Compound 109], the Residual activity in [1] (1.0E-05 M) is listed as 114 % of control; in [1] (1.0E-06 M), 94 % of control; in test [2] (1.0E-05 M), 91 % of control; in [2] (1.0E-06 M), 94 % of control; in test [3] (1.0E-05 M), 116 % of control; in [3] (1.0E-06 M) it was 108 % of control. Further, the Residual activity is on record as 90 % of control in test [4] (1.0E-05 M); 94 % of control in test [4] (1.0E-06 M); 49 % of control in test [5] (1.0E-05 M); 86 % of control in test [5] (1.0E-06 M); 97 % of control in test [6] (1.0E-05 M); 99 % of control in test [6] (1.0E-06 M). Besides, the Residual activity is 80 % of control in [7] (1.0E-05 M); 87 % of control in test [7] (1.0E-06 M); 81 % of control in [8] (1.0E-05 M); 90 % of control in test [8] (1.0E-06 M); 90 % of control in [9] (1.0E-05 M); 79 % of control in test [9] (1.0E-06 M). The Residual activity was 65 % of control in [10] (1.0E-05 M), 98 % of control in test [10] (1.0E-06 M), 91 % of control in test [11] (1.0E-05 M) and 88 % of control in [11] (1.0E-06 M). The inhibition at 10 µM in [5] was no less than 50%.

The record behind these values is publication PMC9030254, “Target Hopping from Protein Kinases to PXR: Identification of Small-Molecule Protein Kinase Inhibitors as Selective Modulators of Pregnane X Receptor from TüKIC Library” (Cells, 2022).
